ChEMBL document CHEMBL6114988, “Design, synthesis and biological evaluation of dual CDK9/PARP inhibitors for the treatment of cancer” (Eur J Med Chem, 2025)
Each block holds one molecule with its values, some of them ahead of it.

What was measured:
[1] = biological target: Poly [ADP-ribose] polymerase 1 (Homo sapiens, UniProt P09874); assay: Inhibition of PARP1 (unknown origin) incubated for 1 hr by ELISA
[2] = biological target: Cyclin-dependent kinase 9 (Homo sapiens, UniProt P50750)
Description: Inhibition of CDK9 (unknown origin) using lipid substrate incubated for 40 mins in presence of ATP by kinase-Glo plus luminescence assay

HCT-116 = assay: cells; settings: Homo sapiens, HCT-116, 48 h
Description: Antiproliferative activity against human HCT-116 cells assessed as inhibition of cell proliferation incubated for 48 hrs by CCK-8 assay

MDA-MB-231 [3] = assay: Induction of cell cycle arrest in human MDA-MB-231 cells assessed as accumulation of cells at G1 phase at 2 uM incubated for 24 hrs by PI staining based flow cytometric analysis (reference value: 58.1%); type: functional
MDA-MB-231 [4] = assay: Induction of cell cycle arrest in human MDA-MB-231 cells assessed as accumulation of cells at S phase at 2 uM incubated for 24 hrs by PI staining based flow cytometric analysis (reference value: 29.2%); type: functional
MCF7 = assay: cells; settings: Homo sapiens, MCF7, 48 h
Description: Antiproliferative activity against human MCF7 cells assessed as inhibition of cell proliferation incubated for 48 hrs by CCK-8 assay

MDA-MB-231 [5] = assay: Induction of apoptosis in human MDA-MB-231 cells assessed as late apoptotic cell at 2 uM incubated for 24 hrs by Annexin V-FITC/PI staining based analysis (reference value: 2.61 %); type: functional
MDA-MB-231 [6] = assay: Induction of apoptosis in human MDA-MB-231 cells assessed as necrotic cell at 2 uM incubated for 24 hrs by Annexin V-FITC/PI staining based analysis (reference value: 0.10 %); type: functional
[7] = Metabolic stability in rat liver microsomes assessed as half life at 1 mg/ml incubated for 60 min in presence of NADPH by HPLC analysis; type: ADME, Microsome
MDA-MB-231 [8] = assay: Induction of apoptosis in human MDA-MB-231 cells assessed as early apoptotic cell at 2 uM incubated for 24 hrs by Annexin V-FITC/PI staining based analysis (reference value: 0.96 %); type: functional
MOLM-13 = assay: Antiproliferative activity against human MOLM-13 cells assessed as inhibition of cell proliferation incubated for 48 hrs by CCK-8 assay; type: functional, cell-based; settings: MOLM-13, 48 h
[9] = Metabolic stability in plasma assessed as parent compound remaining incubated for 3 hrs by HPLC analysis; type: ADME, cell-free; settings: read-out: Stability
MDA-MB-231 [10] = assay: Induction of cell cycle arrest in human MDA-MB-231 cells assessed as accumulation of cells at G2/M phase at 2 uM incubated for 24 hrs by PI staining based flow cytometric analysis (reference value: 11.3%); type: functional
[11] = Metabolic stability in artificial gastric fluid assessed as parent compound remaining at 1 mg/ml incubated for 8 hrs by HPLC analysis; type: ADME; settings: read-out: Stability
MDA-MB-231 [12] = assay: Induction of apoptosis in human MDA-MB-231 cells assessed as viable cell at 2 uM incubated for 24 hrs by Annexin V-FITC/PI staining based analysis (reference value: 96.3 %); type: functional
MV4-11 = assay: Antiproliferative activity against human MV4-11 cells assessed as inhibition of cell proliferation incubated for 48 hrs by CCK-8 assay; type: functional, cell-based; settings: MV4-11, 48 h
[13] = Metabolic stability in artificial intestinal fluid assessed as parent compound remaining at 1 mg/ml incubated for 8 hrs by HPLC analysis; type: ADME; settings: read-out: Stability
MDA-MB-231 [14] = assay: cells; settings: Homo sapiens, MDA-MB-231, 48 h
Description: Antiproliferative activity against human MDA-MB-231 cells assessed as inhibition of cell proliferation incubated for 48 hrs by CCK-8 assay

Chain of Poly [ADP-ribose] polymerase 1 (P09874 whole entry): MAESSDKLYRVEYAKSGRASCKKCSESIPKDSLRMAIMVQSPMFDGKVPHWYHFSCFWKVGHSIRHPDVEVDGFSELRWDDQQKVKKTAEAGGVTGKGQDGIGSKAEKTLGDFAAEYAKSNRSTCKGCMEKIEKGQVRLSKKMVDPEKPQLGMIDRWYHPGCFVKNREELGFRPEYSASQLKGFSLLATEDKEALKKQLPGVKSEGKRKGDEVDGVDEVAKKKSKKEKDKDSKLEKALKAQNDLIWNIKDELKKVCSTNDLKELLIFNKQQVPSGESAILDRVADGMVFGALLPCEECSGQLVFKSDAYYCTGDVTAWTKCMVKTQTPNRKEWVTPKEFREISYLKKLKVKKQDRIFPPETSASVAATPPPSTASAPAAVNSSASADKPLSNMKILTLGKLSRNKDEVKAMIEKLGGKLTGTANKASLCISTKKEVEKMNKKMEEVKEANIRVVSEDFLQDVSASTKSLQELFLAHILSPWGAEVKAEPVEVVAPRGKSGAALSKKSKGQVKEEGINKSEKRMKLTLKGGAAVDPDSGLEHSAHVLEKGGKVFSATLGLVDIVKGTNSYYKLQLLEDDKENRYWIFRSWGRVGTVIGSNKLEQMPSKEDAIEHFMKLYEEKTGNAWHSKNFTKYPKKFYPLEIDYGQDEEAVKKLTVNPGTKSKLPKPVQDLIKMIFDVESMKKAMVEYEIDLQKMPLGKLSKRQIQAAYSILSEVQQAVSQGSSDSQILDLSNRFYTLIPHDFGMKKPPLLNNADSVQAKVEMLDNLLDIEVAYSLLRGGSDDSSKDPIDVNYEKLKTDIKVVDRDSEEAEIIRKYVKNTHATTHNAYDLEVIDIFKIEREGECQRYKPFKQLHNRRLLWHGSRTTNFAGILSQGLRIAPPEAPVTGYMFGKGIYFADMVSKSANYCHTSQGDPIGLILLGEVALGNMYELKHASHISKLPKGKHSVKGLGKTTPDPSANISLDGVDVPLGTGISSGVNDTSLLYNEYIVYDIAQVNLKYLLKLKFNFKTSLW
Chain of Cyclin-dependent kinase 9 (P50750 whole entry): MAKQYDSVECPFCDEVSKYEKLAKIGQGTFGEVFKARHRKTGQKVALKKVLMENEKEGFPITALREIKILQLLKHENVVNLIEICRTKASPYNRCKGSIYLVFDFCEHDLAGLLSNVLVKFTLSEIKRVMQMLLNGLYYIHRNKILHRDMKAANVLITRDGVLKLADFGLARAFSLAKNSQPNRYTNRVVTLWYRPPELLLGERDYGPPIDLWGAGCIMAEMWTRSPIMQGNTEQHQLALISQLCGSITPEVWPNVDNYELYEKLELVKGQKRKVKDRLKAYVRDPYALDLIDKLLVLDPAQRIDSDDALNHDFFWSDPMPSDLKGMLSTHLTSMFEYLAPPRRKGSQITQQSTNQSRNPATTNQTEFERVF

IC50 [1]: 48 nM
IC50 [2]: 31 nM
Compound: COc1ccc(F)cc1-c1cc(Nc2cc(CN3CCN(C(=O)c4cc(Cc5n[nH]c(=O)c6ccccc56)ccc4F)CC3)ccn2)ncc1F

IC50 [1]: 16 nM
IC50 [2]: 61 nM
Compound: COc1cccc(F)c1-c1cc(Nc2cc(CN3CCN(C(=O)c4cc(Cc5n[nH]c(=O)c6ccccc56)ccc4F)CC3)ccn2)ncc1F

IC50 [1]: 91 nM
IC50 [2]: 2350 nM
Compound: COc1cc(F)ccc1-c1nc(Nc2cc(CN3CCN(C(=O)c4cc(Cc5n[nH]c(=O)c6ccccc56)ccc4F)CC3)ccn2)ncc1F

IC50 (HCT-116): 200000 nM
IC50 (MCF7): 195000 nM
half-life at 1 mg/ml [7]: 1.86 h
IC50 (MOLM-13): 43100 nM
remaining at 3 h [9]: 99.4%
remaining at 8 h, 1 mg/ml [11]: 99.4%
IC50 (MV4-11): 15200 nM
remaining at 8 h, 1 mg/ml [13]: 100%
IC50 (MDA-MB-231 [14]): > 50000 nM
Compound: O=C(c1cc(Cc2n[nH]c(=O)c3ccccc23)ccc1F)N1CCN(C(=O)C2CC2)CC1 [OLAPARIB]
Activity (MDA-MB-231 [3]): 48.7%
Activity (MDA-MB-231 [4]): 35.8%
Activity (MDA-MB-231 [5]): 2.13%
Activity (MDA-MB-231 [6]): 0.48%
Activity (MDA-MB-231 [8]): 0.59%
Activity (MDA-MB-231 [10]): 14.1%
Activity (MDA-MB-231 [12]): 96.8%

IC50 [1]: 118 nM
IC50 [2]: 54 nM
Compound: O=C(c1cc(Cc2n[nH]c(=O)c3ccccc23)ccc1F)N1CCN(Cc2ccnc(Nc3cc(-c4ccc(F)c5ccoc45)c(F)cn3)c2)CC1

IC50 [1]: 32 nM
IC50 [2]: 59 nM
Compound: CCOc1cc(F)ccc1-c1cc(Nc2cc(CN3CCN(C(=O)c4cc(Cc5n[nH]c(=O)c6ccccc56)ccc4F)CC3)ccn2)ncc1F
